From patent EP0183129A1, “Quinolonecarboxylic acid derivatives” (KYORIN PHARMACEUTICAL CO., LTD., priority 1984, dated 1986)
Converted amounts (≈) assume the structure as drawn.

Experiments:
S. pyogenes 3102 = assay: In vitro antibacterial activity, MIC (clinical isolates); format: cell-based; conditions: Streptococcus pyogenes; S. pyogenes 3102; 10^6 cells/ml; clinical isolate; read-out: MIC
[1] = tested on: Staphylococcus aureus 209 P; assay: In vitro antibacterial activity, MIC (standard strain); format: cell-based; conditions: Staphylococcus aureus 209 P; 10^6 cells/ml; standard strain; read-out: MIC
P. mirabilis IID 994 = assay: as above; format: cell-based; conditions: Proteus mirabilis, IID994; P. mirabilis IID 994; 10^6 cells/ml; standard strain; read-out: MIC
[2] = tested on: Bacillus subtilis PCI 219; assay: as above; format: cell-based; conditions: PCI219; Bacillus subtilis PCI 219; 10^6 cells/ml; standard strain; read-out: MIC
E. coli ML 4707 = assay: as above; format: cell-based; conditions: Escherichia coli, ML4707; E. coli ML 4707; 10^6 cells/ml; standard strain; read-out: MIC
S. agalactiae 4368 = assay: In vitro antibacterial activity, MIC (clinical isolates); format: cell-based; conditions: Streptococcus agalactiae; S. agalactiae 4368; 10^6 cells/ml; clinical isolate; read-out: MIC
P. aeruginosa IID 1210 = assay: In vitro antibacterial activity, MIC (standard strain); format: cell-based; conditions: Pseudomonas aeruginosa, IID1210; P. aeruginosa IID 1210; 10^6 cells/ml; standard strain; read-out: MIC
S. epidermidis IID 866 = assay: as above; format: cell-based; conditions: Staphylococcus epidermidis, IID866, S. epidermidis IID 866; 10^6 cells/ml; standard strain; read-out: MIC
[3] = tested on: Klebsiella pneumoniae KY(GN)6445; assay: as above; format: cell-based; conditions: Klebsiella pneumoniae KY(GN)6445; 10^6 cells/ml; standard strain; read-out: MIC
[4] = tested on: Serratia marcescens IID 618; assay: as above; format: cell-based; conditions: Serratia marcescens, IID618, Serratia marcescens IID 618; 10^6 cells/ml; standard strain; read-out: MIC
[5] = tested on: Pseudomonas aeruginosa V-1; assay: as above; format: cell-based; conditions: V1; Pseudomonas aeruginosa V-1; 10^6 cells/ml; standard strain; read-out: MIC
[6] = tested on: Alcaligenes faecalis 0104002; assay: as above; format: cell-based; conditions: Alcaligenes faecalis, 0104002, Alcaligenes faecalis 0104002; 10^6 cells/ml; standard strain; read-out: MIC
[7] = tested on: Citrobacter freundii IID 976; assay: as above; format: cell-based; conditions: IID976; Citrobacter freundii IID 976; 10^6 cells/ml; standard strain; read-out: MIC
S. agalactiae 4394 = assay: In vitro antibacterial activity, MIC (clinical isolates); format: cell-based; conditions: Streptococcus agalactiae; S. agalactiae 4394; 10^6 cells/ml; clinical isolate; read-out: MIC
S. pneumoniae 24 = assay: as above; format: cell-based; conditions: Streptococcus pneumoniae; S. pneumoniae 24; 10^6 cells/ml; clinical isolate; read-out: MIC
C. ramosum = assay: In vitro antibacterial activity, MIC (standard strain); format: cell-based; conditions: Thomasclavelia ramosa; C. ramosum; 10^6 cells/ml; standard strain; read-out: MIC
S. pyogenes 4372 = assay: In vitro antibacterial activity, MIC (clinical isolates); format: cell-based; conditions: Streptococcus pyogenes; S. pyogenes 4372; 10^6 cells/ml; clinical isolate; read-out: MIC
[8] = tested on: Proteus vulgaris IFO 3167; assay: In vitro antibacterial activity, MIC (standard strain); format: cell-based; conditions: IFO3167; Proteus vulgaris IFO 3167; 10^6 cells/ml; standard strain; read-out: MIC
S. faecalis 401 = assay: In vitro antibacterial activity, MIC (clinical isolates); format: cell-based; conditions: Enterococcus faecalis; S. faecalis 401; 10^6 cells/ml; clinical isolate; read-out: MIC
S. agalactiae 4049 = assay: as above; format: cell-based; conditions: Streptococcus agalactiae; S. agalactiae 4049; 10^6 cells/ml; clinical isolate; read-out: MIC
B. fragilis 25285 = assay: In vitro antibacterial activity, MIC (standard strain); format: cell-based, Bacteroides fragilis; conditions: Bacteroides fragilis, 25285, B. fragilis 25285; 10^6 cells/ml; standard strain; read-out: MIC
S. pyogenes 3130 = assay: In vitro antibacterial activity, MIC (clinical isolates); format: cell-based; conditions: Streptococcus pyogenes, read-out: MIC
[9] = tested on: Fusobacterium varium KYA 8501; assay: In vitro antibacterial activity, MIC (standard strain); format: cell-based; conditions: Fusobacterium varium, KYA8501, Fusobacterium varium KYA 8501; 10^6 cells/ml; standard strain; read-out: MIC
K. pneumoniae 1-220S = assay: as above; format: cell-based; conditions: Klebsiella pneumoniae, 1220S; K. pneumoniae 1-220S; 10^6 cells/ml; standard strain; read-out: MIC
[10] = tested on: Escherichia coli NIHJ JC-2; assay: as above; format: cell-based; conditions: Escherichia coli, NIHJJC2, Escherichia coli NIHJ JC-2; 10^6 cells/ml; standard strain; read-out: MIC
E. coli ML4707 = assay: In vivo antibacterial activity against systemic infection in mice; set-up: species or system mice (ICR-S)
Description: (§1) Experiment-2 In vivo antibacterial activity against systemic infection in mice (ICR-S)
(§2) The infections were produced by intraperitoneal injection of a suspension of the bacterial culture corresponding to the germ studied. The products were administered orally at an hour after the infection.

S. aureus Smith = assay: as above; set-up: species or system mice (ICR-S); conditions: Staphylococcus aureus, po, mice (ICR-S), an hour after intraperitoneal infection, challenge dose 6.0 x 10^5 cfu/mouse, read-out: ED50 S. aureus Smith
Description: as §1, §2

S. pneumoniae S-4288 = assay: as above; set-up: species or system mice (ICR-S); conditions: Streptococcus pneumoniae, S4288; mice (ICR-S); oral, an hour after intraperitoneal infection; challenge dose 7.5 x 10^4 ~ 4.8 x 10^6 cfu/mouse; read-out: ED50 S. pneumoniae S-4288
Description: as §1, §2

`CCNCC1CCN(c2c(F)cc3c(=O)c(C(=O)O)cn(C4CC4)c3c2Cl)C1` (stereo not drawn) [Example 13, 8-Chloro-l-cyclorpropyl-6-fluoro-1,4-dihydro-7-(3-ethylaminomethyl-l-pyrrolidinyl)-4-oxo-3-quinolinecarboxylic acid] gave an MIC (S. pyogenes 3102) of 0.05 µg/mL (≈ 0.123 µM), an MIC [1] of 0.0125 µg/mL (≈ 0.0306 µM) and an MIC (P. mirabilis IID 994) of 0.05 µg/mL (≈ 0.123 µM). For the same compound, the MIC [2] was 0.0125 µg/mL (≈ 0.0306 µM), the MIC (E. coli ML 4707) was 0.025 µg/mL (≈ 0.0613 µM) and the MIC (S. agalactiae 4368) was 0.025 µg/mL (≈ 0.0613 µM). It also gave an MIC (P. aeruginosa IID 1210) of 1.56 µg/mL (≈ 3.82 µM), an MIC (S. epidermidis IID 866) of 0.025 µg/mL (≈ 0.0613 µM) and an MIC [3] of 0.05 µg/mL (≈ 0.123 µM). The MIC [4] was 0.1 µg/mL (≈ 0.245 µM), the MIC [5] was 0.78 µg/mL (≈ 1.91 µM) and the MIC [6] was 0.39 µg/mL (≈ 0.956 µM). It also gave an MIC [7] of 0.05 µg/mL (≈ 0.123 µM), an MIC (S. agalactiae 4394) of 0.1 µg/mL (≈ 0.245 µM) and an MIC (S. pneumoniae 24) of 0.05 µg/mL (≈ 0.123 µM). For the same compound, the MIC (C. ramosum) was 0.2 µg/mL (≈ 0.49 µM), the MIC (S. pyogenes 4372) was 0.05 µg/mL (≈ 0.123 µM) and the MIC [8] was 0.025 µg/mL (≈ 0.0613 µM). The MIC (S. faecalis 401) was 0.1 µg/mL (≈ 0.245 µM), the MIC (S. agalactiae 4049) was 0.05 µg/mL (≈ 0.123 µM) and the MIC (B. fragilis 25285) was 0.05 µg/mL (≈ 0.123 µM). The MIC (S. pyogenes 3130) was 0.05 µg/mL (≈ 0.123 µM), the MIC [9] was 0.39 µg/mL (≈ 0.956 µM) and the MIC (K. pneumoniae 1-220S) was 0.1 µg/mL (≈ 0.245 µM). For the same compound, the MIC [10] was 0.0125 µg/mL (≈ 0.0306 µM), the ED50 (E. coli ML4707; Escherichia coli, ML4707, mice (ICR-S), oral, an hour after intraperitoneal infection, challenge dose 2.7 x 10^6 ~ 8.8 x 10^6 cfu/mouse, read-out: ED50 E. coli ML4707) was 0.7 mg/kg and the “activity against gram-negative bacterial infections compared with the reference compounds” value (E. coli ML4707; systemic infection in mice, result in words) was “greater activity against gram-negative bacterial infections than the reference compounds”. The ED50 (S. aureus Smith) was 0.6 mg/kg and the ED50 (S. pneumoniae S-4288) was 2 mg/kg.
